Laboratory results published in PubChem BioAssay (NCI).
Where “and” joins values, the source holds several entries; their conditions need not be identical. Equal entries are not always repeated.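 Step 1: Grow cells in 96-well plates. Step 2: Expose to compound for 48 hours at 5 concentrations. Step 3: Interpolate endpoints linearly; if unreached, use highest concentration. GI50 is the concentration that inhibits growth by half. The concentration for full growth arrest is given as TGI.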

Columns and labels:
Experiment in all cases: growth of human tumour cells (NCI), 48 h
HCC-2998 colon = tested on: HCC-2998 colon
HOP-92 NSCLC = tested on: HOP-92 NSCLC
KM12 colon = tested on: KM12 colon
MDA-MB-435 = tested on: MDA-MB-435
RXF 393 renal = tested on: RXF 393 renal
SF-295 CNS = tested on: SF-295 CNS
SK-OV-3 ovarian = tested on: SK-OV-3 ovarian
U251 CNS = tested on: U251 CNS
UACC-62 melanoma = tested on: UACC-62 melanoma

SMILES | TGI (HCC-2998 colon) [µM] | TGI (HOP-92 NSCLC) [µM] | TGI (KM12 colon) [µM] | TGI (MDA-MB-435) [µM] | TGI (RXF 393 renal) [µM] | TGI (SF-295 CNS) [µM] | TGI (SK-OV-3 ovarian) [µM] | TGI (U251 CNS) [µM] | TGI (UACC-62 melanoma) [µM] | GI50 (HCC-2998 colon) [µM] | GI50 (HOP-92 NSCLC) | GI50 (KM12 colon) [µM] | GI50 (MDA-MB-435) [µM] | GI50 (RXF 393 renal) [µM] | GI50 (SF-295 CNS) [µM] | GI50 (SK-OV-3 ovarian) [µM] | GI50 (U251 CNS) [µM] | GI50 (UACC-62 melanoma) [µM]
CCCCn1cnc2c(c(CC#N)nn2-c2ccccc2)c1=N | > 100 | > 100 | > 100 | > 100 | > 100 | > 100 | > 100 | > 100 | 53.1 | – | – | – | – | – | – | – | – | –
O=C(Nc1ccccc1F)c1cc2ccc(O)cc2oc1=Nc1ccccc1F | 8.04 | – | 5.37 | 4.24 | – | 8.48 | 42.1 | 3.63 | 5.9 | – | – | – | – | – | – | – | – | –
CCOC(=O)C1(C(=O)OCC)COS(=O)OC1 | > 100 | 28.6 | > 100 | > 100 | 32.6 | > 100 | > 100 | > 100 | – | – | – | – | – | – | – | – | – | –
C/C1=C\CC[C@@]2(C)O[C@@H]2C[C@@H](C2(C)CO2)CC/C(C)=C/CC1 (stereo partly specified) | 39.2 | > 100 | 34.3 | 46.4 | – | 51 | > 100 | 29.6 | 40.4 | – | – | – | – | – | – | – | – | –
CC1CN=C(N(C(=O)Nc2ccc(F)c(Cl)c2)c2ccccc2)S1 (stereo unspecified) | – | 48.1 | 78.3 | – | – | > 100 | 98.7 | 50.5 | – | – | – | – | – | – | – | – | – | –
O=c1ccn(C2OC(CO)C(P(=O)(O)O)C2O)c(=O)[nH]1 (stereo unspecified) | > 100 | > 100 | > 100 | – | > 100 | > 100 | – | > 100 | > 100 | – | – | – | – | – | – | – | – | –
COc1ccc(-c2c3c([nH]c(=S)c2C#N)CC(C)(C)CC3=O)cc1 | > 100 | > 100 | > 100 | – | > 100 | > 100 | – | > 100 | > 100 | – | – | – | – | – | – | – | – | –
COc1cc2cc(Oc3ccc(NC(=O)c4cc(C(F)(F)F)cc(C(F)(F)F)c4)cc3)c(C)nc2cc1OC | > 50 | > 50 | > 50 | > 50 | > 50 | > 50 | > 50 | > 50 | – | > 50 | 1.82 µM | 2.79 | > 50 | 2.93 | 1.64 | > 50 | 2.64 | –
CC[n+]1[b-](C(C)(C)C)n(/N=C/C(C)(C)C)[b-](C(C)(C)C)[n+]1CC | > 100 | – | > 100 | > 100 | > 100 | > 100 | – | > 100 | > 100 | – | – | – | – | – | – | – | – | –
N=C(N)c1ccc(-c2ccc(-c3cccs3)s2)cc1 | 2.17 | 16 | – | – | 35.5 | – | 9.64 | – | 3.18 | 0.747 | 2.71 µM | – | – | 13.9 | – | 4.15 | – | 1.68
COC(=O)c1cc2c(cc1CC1Cc3cc4c(cc3C1)CCC4)CCC2 | 70 | 98.9 | > 100 | > 100 | > 100 | > 100 | > 100 | > 100 | – | – | – | – | – | – | – | – | – | –
O=C(NC(COC(=O)C(Cc1ccccc1)NC(=O)c1ccccc1)Cc1ccccc1)c1ccccc1 (stereo unspecified) | > 50 | > 50 | > 50 | > 50 | – | > 50 | > 50 | > 50 | > 50 | – | – | – | – | – | – | – | – | –
CCCCNC(=S)N/N=C/c1cccc(C)n1 | – | 86.7 | > 100 | > 100 | – | > 100 | > 100 | > 100 | 68.3 | – | – | – | – | – | – | – | – | –
CSC(=Nc1ccccc1)N(c1ccccc1)c1nc(=[N+](C)C)ss1 | 20.7 | 7.09 | 13.7 | – | 12.7 | 25.1 | 38.5 | 17.2 | 1.74 | – | – | – | – | – | – | – | – | –
COc1ccc(S(=O)(=O)N2C(=O)CCC2C(=O)NN)cc1 (stereo unspecified) | > 100 | > 100 | > 100 | > 100 | – | > 100 | > 100 | > 100 | > 100 | – | – | – | – | – | – | – | – | –
CC(C)(C)OC(=O)NCCC(N)=S | – | > 100 | > 100 | > 100 | > 100 | > 100 | > 100 | > 100 | > 100 | – | – | – | – | – | – | – | – | –
NCCCN1CCN(CCCNc2ccc3nnn4c5ccccc5c(=O)c2c34)CC1 | 29.4 | 96.6 | – | 60.1 | – | 45.2 | > 100 | > 100 | 33.7 | – | – | – | – | – | – | – | – | –
Oc1[nH]c2ccc(Br)cc2c1N=NC(=S)Nc1ccc(F)cc1 | – | 16.3 | 30.5 | 13.6 | 13.2 | 21.8 | 33.4 | 18.5 | 13.8 | – | – | – | – | – | – | – | – | –
O=C(O)c1cc(-c2ccc3c(O)c(O)ccc3c2)ccc1O | > 75 | – | > 75 | > 75 | 47.8 | 29.1 | > 75 | 26.1 | > 75 | – | – | – | – | – | – | – | – | –
Cc1ccc(OCCn2cc(Nc3ccccc3)c(=O)n(CCOc3ccc(C)cc3)c2=O)cc1 | > 100 | > 100 | > 100 | > 100 | > 100 | > 100 | – | > 100 | > 100 | – | – | – | – | – | – | – | – | –
COC(=O)c1c2c(cc3c1CCC3)CCC2 | > 100 | – | > 100 | > 100 | – | > 100 | > 100 | > 100 | > 100 | – | – | – | – | – | – | – | – | –
C=C1c2cc3c(cc2CC12Cc1cc4c(cc1C2=O)CCC4)CCC3 (stereo unspecified) | > 100 | > 100 | – | > 100 | > 100 | > 100 | > 100 | > 100 | – | – | – | – | – | – | – | – | – | –
NC(CC1=CS(=O)(=O)c2ccc(Cl)cc21)C(=O)O (stereo unspecified) | – | > 100 | > 100 | > 100 | > 100 | > 100 | > 100 | > 100 | > 100 | – | – | – | – | – | – | – | – | –
C(=Nc1ccc(-c2nc3ccccc3o2)cc1)c1ccco1 | – | > 100 | – | > 100 | > 100 | – | – | – | – | – | – | – | – | – | – | – | – | –
COc1nc2ncc([C@@H](OC(C)=O)[C@@H](COC(C)=O)OC(C)=O)nc2c(=O)[nH]1 | – | > 100 | > 100 | > 100 | > 100 | > 100 | > 100 | > 100 | > 100 | – | > 100 µM and 32.8 µM | – | – | – | – | – | – | –
